Our source for the IC50 and logD values is ChEMBL document CHEMBL5338801, “Carbohydrate Strengthens the Immunotherapeutic Effect of Small-Molecule PD-L1 Inhibitors” (J Med Chem, 2023).

What is called IC50 is the concentration that inhibits the measured activity by half. The term logD denotes lipophilicity at a set pH, counting ionised and neutral species.

In data set [1] the target is Programmed cell death protein 1/Programmed cell death 1 ligand 1 (Homo sapiens, UniProt Q9NZQ7). The data set is described as follows: Inhibition of PD-1/PD-L1 (unknown origin) interaction incubated for 15 mins by HTRF assay. The format is protein-complex assay. Background: In TR-FRET formats the signal depends on donor and acceptor labels being close together.
Another data set deals with Jurkat. The experiment in a line: Cytotoxicity against human Jurkat cells assessed as cell growth inhibition incubated for 48 hrs by MTT assay. It is filed as functional, cell-based. Background: Formazan colour is commonly taken as a measure of viable cells.
A short description of data set [2]: Partition coefficient, logD of compound in 1-octanol and phosphate buffer at pH 7.4 incubated for 1 hr under shaking condition by HPLC analysis. The conditions noted are these: for logD at 1 h: 1-octanol/phosphate buffer, pH 7.4. It is filed as physicochemical.

The structures appear in SMILES notation.

Chain of Programmed cell death protein 1/Programmed cell death 1 ligand 1 (Q15116 whole entry): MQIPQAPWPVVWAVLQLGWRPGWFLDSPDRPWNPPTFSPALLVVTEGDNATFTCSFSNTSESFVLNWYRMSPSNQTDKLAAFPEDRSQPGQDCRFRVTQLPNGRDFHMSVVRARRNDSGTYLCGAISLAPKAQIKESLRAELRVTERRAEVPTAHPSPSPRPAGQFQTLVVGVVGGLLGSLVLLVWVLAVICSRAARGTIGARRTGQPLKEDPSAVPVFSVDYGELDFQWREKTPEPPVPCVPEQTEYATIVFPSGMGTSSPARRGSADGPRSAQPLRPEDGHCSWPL
Chain of Programmed cell death protein 1/Programmed cell death 1 ligand 1 (Q9NZQ7 whole entry): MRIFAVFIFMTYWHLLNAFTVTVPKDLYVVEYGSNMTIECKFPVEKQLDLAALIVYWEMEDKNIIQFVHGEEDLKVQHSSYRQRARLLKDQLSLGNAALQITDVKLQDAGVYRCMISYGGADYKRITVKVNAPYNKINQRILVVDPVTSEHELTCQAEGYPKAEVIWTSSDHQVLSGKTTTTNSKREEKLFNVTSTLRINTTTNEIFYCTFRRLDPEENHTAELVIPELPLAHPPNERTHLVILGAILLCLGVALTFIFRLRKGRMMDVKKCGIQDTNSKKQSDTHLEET

Regarding `COc1ccc(CNCc2cn([C@@H]3O[C@H](CO)[C@@H](O)[C@H](O)[C@H]3NC(C)=O)nn2)cc1OCc1cccc(-c2ccccc2)c1C`, the IC50 in data set [1] was 1090 nM; in the data set with Jurkat, greater than 100000 nM.

Turning to `COc1nc(OCc2cccc(-c3ccccc3)c2C)ccc1CNCc1cn([C@@H]2O[C@H](CO)[C@@H](O)[C@H](OC)[C@H]2O)nn1`, the IC50 in data set [1] stood at 305 nM; in the data set with Jurkat, 34300 nM.

On to `COc1nc(OCc2cccc(-c3ccccc3)c2C)ccc1CNCc1cn([C@@H]2OC[C@@H](O)[C@H](O)[C@H]2O)nn1`, for which the values for the IC50 (in data set [1]; in the data set on Jurkat) were 110 nM and 25500 nM, respectively.

On to `COc1ccc(CNCc2cn([C@@H]3OC[C@H](O)[C@H](O)[C@H]3O)nn2)cc1OCc1cccc(-c2ccccc2)c1C`, for which the IC50 in data set [1] was determined as 1240 nM; in the data set with Jurkat, 49200 nM.

Consider `COc1ccc(CNCc2cn([C@@H]3O[C@@H]4CO[C@@H](c5ccccc5)O[C@H]4[C@H](O)[C@H]3O)nn2)cc1OCc1cccc(-c2ccccc2)c1C`, for which the IC50 in data set [1] came to 2960 nM; with Jurkat it was 6200 nM.

On to `COc1cc(OCc2cccc(-c3ccccc3)c2C)cc(OC)c1CNCc1cn([C@@H]2O[C@H](CO)[C@@H](O)[C@H](O)[C@H]2NC(C)=O)nn1`, for which the IC50 in data set [1] was 30 nM; in the data set with Jurkat, greater than 100000 nM.

In the case of `COc1cc(OCc2cccc(-c3ccccc3)c2C)cc(OC)c1CNCc1cn([C@@H]2OC[C@H](O)[C@H](O)[C@H]2O)nn1`, the IC50 in data set [1] stood at 507 nM; in the data set with Jurkat, 43400 nM.

On to `COc1cc(OCc2cccc(-c3ccccc3)c2C)cc(OC)c1CNCc1cn([C@@H]2OC[C@@H](O)[C@@H](O)[C@H]2O)nn1`, for which the IC50 in data set [1] was 206 nM; with Jurkat, 14900 nM.

Consider `COc1nc(OCc2cccc(-c3ccccc3)c2C)ccc1CNCc1cnnn1[C@H]1OC[C@@H](O)[C@H](O)[C@@H]1O`, for which the IC50 in data set [1] was determined as 118 nM; in the data set with Jurkat, 26700 nM.

For the compound `COc1nc(OCc2cccc(-c3ccccc3)c2C)ccc1CNCc1cn([C@@H]2O[C@H](CO)[C@H](O)[C@H](O)[C@H]2O)nn1`, the values for the IC50 (in data set [1]; in the data set on Jurkat) were 174 nM and greater than 100000 nM, respectively.

Turning to `COc1cc(OCc2cccc(-c3ccccc3)c2C)cc(OC)c1CNCc1cn([C@@H]2O[C@@H]3CO[C@@H](c4ccccc4)O[C@H]3[C@H](O)[C@H]2O)nn1`, the figures for the IC50 (in data set [1]; in the data set on Jurkat) were 1090 nM and 4500 nM, respectively.

In data set [2] (octanol/water, pH 7.4, 1 h), `CC(C)(C)NCC(O)COc1cccc2c1CC(O)C(O)C2` (stereo unspecified) [NADOLOL] came in with a logD of -1.2.

With `COc1nc(OCc2cccc(-c3ccccc3)c2C)ccc1CNCc1cn([C@@H]2O[C@@H]3CO[C@@H](c4ccccc4)O[C@H]3[C@H](O)[C@H]2O)nn1`, the concentration for half-maximal inhibition (IC50) in data set [1] was 461 nM; in the data set on Jurkat, 8800 nM.

For `COc1cc(OCc2cccc(-c3ccccc3)c2C)cc(OC)c1CNCc1cn([C@@H]2O[C@H](CO)[C@H](O)[C@H](O)[C@H]2O)nn1`, the half-inhibitory concentration (IC50) in data set [1] was 454 nM; with Jurkat, 27300 nM.

On to `COc1cc(OCc2cccc(-c3ccccc3)c2C)cc(OC)c1CNCc1cn([C@@H]2OC[C@@H](O)[C@H](O)[C@H]2O)nn1`, for which the results for the IC50 (in data set [1]; in the data set on Jurkat) were 353 nM and 27600 nM, respectively.

For the compound `COc1cc(OCc2cccc(-c3ccccc3)c2C)cc(OC)c1CNCc1cn([C@@H]2O[C@H](CO)[C@@H](O)[C@H](OC)[C@H]2O)nn1`, the IC50 in data set [1] came out at 355 nM; in the data set with Jurkat it was 44000 nM.

With `COc1ccc(CNCc2cn([C@@H]3O[C@H](CO)[C@@H](O)[C@H](O)[C@H]3O)nn2)cc1OCc1cccc(-c2ccccc2)c1C`, the IC50 was 1760 nM in data set [1] and greater than 100000 nM in the data set with Jurkat.

Take `COc1cc(OCc2cccc(-c3ccccc3)c2C)cc(OC)c1CNCc1cnnn1[C@H]1OC[C@@H](O)[C@H](O)[C@@H]1O`: the IC50 in data set [1] amounted to 169 nM; in the data set on Jurkat, 24900 nM.

For the compound `COc1ccc(CNCc2cn([C@@H]3O[C@H](CO)[C@@H](O)[C@H](OC)[C@H]3O)nn2)cc1OCc1cccc(-c2ccccc2)c1C`, the IC50 was 384 nM in data set [1] and 50000 nM with Jurkat.

With `COc1nc(OCc2cccc(-c3ccccc3)c2C)ccc1CNCc1cn([C@@H]2O[C@H](CO)[C@@H](O)[C@H](O)[C@H]2NC(C)=O)nn1`, the 50% inhibitory concentration (IC50) in data set [1] is 23.7 nM; with Jurkat it was greater than 100000 nM.

For `COc1ccc(CNCc2cn([C@@H]3O[C@H](CO)[C@H](O)[C@H](O)[C@H]3O)nn2)cc1OCc1cccc(-c2ccccc2)c1C`, the results for the IC50 (in data set [1]; in the data set with Jurkat) were 612 nM and greater than 100000 nM, respectively.

Turning to `COc1cc(OCc2cccc(-c3ccccc3)c2C)cc(OC)c1CNCc1cn([C@H]2O[C@H](CO)[C@@H](O)[C@H](O)[C@@H]2O)nn1`, the IC50 in data set [1] stood at 114 nM; in the data set on Jurkat, 50500 nM.

For `COc1nc(OCc2cccc(-c3ccccc3)c2C)ccc1CNCc1cn([C@@H]2OC[C@@H](O)[C@@H](O)[C@H]2O)nn1`, the IC50 is 98.9 nM in data set [1] and 16900 nM with Jurkat.

As for `COc1ccc(CNCc2cn([C@H]3O[C@@H](C)[C@@H](O)[C@@H](O)[C@@H]3O)nn2)cc1OCc1cccc(-c2ccccc2)c1C`, the IC50 was 1920 nM in data set [1] and 53100 nM in the data set on Jurkat.

`COc1nc(OCc2cccc(-c3ccccc3)c2C)ccc1CNCc1cn([C@H]2O[C@H](CO)[C@@H](O)[C@H](O)[C@@H]2O)nn1`: the IC50 is 164 nM in data set [1] and 46000 nM with Jurkat.

Regarding `COc1ccc(CNCc2cn([C@H]3O[C@H](CO)[C@@H](O)[C@H](O)[C@@H]3O)nn2)cc1OCc1cccc(-c2ccccc2)c1C`, the IC50 is 1150 nM in data set [1] and 73900 nM in the data set on Jurkat.

Regarding `COc1nc(OCc2cccc(-c3ccccc3)c2C)ccc1CNCc1cn([C@H]2O[C@@H](C)[C@@H](O)[C@@H](O)[C@@H]2O)nn1`, the results for the IC50 (in data set [1]; with Jurkat) were 178 nM and 24500 nM, respectively.

For the compound `CN(C)CCCN1c2ccccc2Sc2ccc(Cl)cc21` [CHLORPROMAZINE], in data set [2], the logD at 1 h was 3.18.

On to `COc1ccc(CNCc2cn([C@H]3OC[C@@H](O)[C@H](O)[C@@H]3O)nn2)cc1OCc1cccc(-c2ccccc2)c1C`, for which the 50% inhibitory concentration (IC50) in data set [1] was 503 nM; in the data set on Jurkat, 43500 nM.

On to `COc1ccc(CNCc2cn([C@@H]3OC[C@@H](O)[C@H](O)[C@H]3O)nn2)cc1OCc1cccc(-c2ccccc2)c1C`, for which the IC50 in data set [1] is 1780 nM; with Jurkat, 47500 nM.

On to `COc1ccc(CNCc2cn([C@@H]3OC[C@@H](O)[C@@H](O)[C@H]3O)nn2)cc1OCc1cccc(-c2ccccc2)c1C`, for which the figures for the IC50 (in data set [1]; with Jurkat) were 2260 nM and 31300 nM, respectively.

In the case of `COc1cc(OCc2cccc(-c3ccccc3)c2C)cc(OC)c1CNCc1cn([C@@H]2OC[C@H](O)[C@@H](O)[C@H]2O)nn1`, the 50% inhibitory concentration (IC50) in data set [1] is 321 nM; in the data set on Jurkat it was 19800 nM.

On to `COc1nc(OCc2cccc(-c3ccccc3)c2C)ccc1CNCc1cn([C@@H]2O[C@H](CO)[C@@H](O)[C@H](O)[C@H]2O)nn1`, for which the IC50 was 56.1 nM in data set [1] and greater than 100000 nM with Jurkat.

With `COc1cc(OCc2cccc(-c3ccccc3)c2C)cc(OC)c1CNCc1cn([C@@H]2O[C@H](CO)[C@@H](O)[C@H](O)[C@H]2O)nn1`, the results for the IC50 (in data set [1]; with Jurkat) were 147 nM and greater than 100000 nM, respectively.

With `COc1ccc(CNCc2cn([C@@H]3OC[C@H](O)[C@@H](O)[C@H]3O)nn2)cc1OCc1cccc(-c2ccccc2)c1C`, the values for the IC50 (in data set [1]; with Jurkat) were 1480 nM and 53900 nM, respectively.

In data set [2], `CN(C)CCC=C1c2ccccc2CCc2ccccc21` [AMITRIPTYLINE] registered a pH-dependent lipophilicity (logD) at 1 h of 3.

As to `COc1cc(OCc2cccc(-c3ccccc3)c2C)cc(OC)c1CNCc1cn([C@H]2O[C@@H](C)[C@@H](O)[C@@H](O)[C@@H]2O)nn1`, the figures for the IC50 (in data set [1]; in the data set on Jurkat) were 161 nM and 30800 nM, respectively.
